Laboratory results taken from ChEMBL document CHEMBL1201862, “PubChem BioAssay data set” (2004).
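Cultured in 96-well plates, cells were exposed to test compound for 48 hours across five concentrations. At the GI50, growth is halved.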 Activity calls are given as the source filed them. Rule as the data show it: active = GI50 up to about 1.1 µM and inactive = higher.

Key:
Assay in all cases: NCI-60 cell line screen, 48 h
[1] = system: DLD-1
[2] = system: OVCAR-4
[3] = system: 786-0
[4] = system: HCT-15
[5] = system: TK-10
[6] = system: MOLT-4
[7] = system: UACC-62
[8] = system: SF-295
[9] = system: HCC 2998
[10] = system: SK-MEL-5
[11] = system: K562
[12] = system: SF-268
[13] = system: UACC-257
[14] = system: EKVX
[15] = system: LOX IMVI
[16] = system: NCI-H460
[17] = system: CCRF-CEM
[18] = system: OVCAR-5
[19] = system: T47D
[20] = system: DU-145

| SMILES | GI50 [1] | GI50 [2] | GI50 [3] | GI50 [4] | GI50 [5] | GI50 [6] | GI50 [7] | GI50 [8] | GI50 [9] | GI50 [10] | GI50 [11] | GI50 [12] | GI50 [13] | GI50 [14] | GI50 [15] | GI50 [16] | GI50 [17] | GI50 [18] | GI50 [19] | GI50 [20] |
| --- | --- | --- | --- | --- | --- | --- | --- | --- | --- | --- | --- | --- | --- | --- | --- | --- | --- | --- | --- | --- |
| CC1(c2ccccc2Cl)C(C#N)C(=O)NC(=O)C1C#N (configuration not stated) | 68.7 µM (inactive) | 33.3 µM (inactive) | 45.6 µM (inactive) | > 100 µM | > 100 µM (inactive) | 31.2 µM (inactive) | 33.6 µM (inactive) | 32.7 µM (inactive) | 41.3 µM (inactive) | 25.8 µM (inactive) | 27.4 µM (inactive) | 35.8 µM (inactive) | 30.5 µM (inactive) | 24.5 µM (inactive) | 40.1 µM (inactive) | 36.6 µM (inactive) | 30.1 µM (inactive) | 91 µM (inactive) |  |  |
| CC(=O)/C(=C\c1cccc([N+](=O)[O-])c1)C(=O)Nc1ccccc1C | > 100 µM (inactive) | 56.4 µM (inactive) | > 100 µM (inactive) | > 100 µM | > 100 µM (inactive) | 39.5 µM (inactive) | 59.2 µM (inactive) | > 100 µM (inactive) | 75.5 µM (inactive) | > 100 µM (inactive) | 72.4 µM (inactive) | > 100 µM (inactive) | > 100 µM (inactive) | > 100 µM (inactive) | 60.1 µM (inactive) | > 100 µM (inactive) | 31.2 µM (inactive) | > 100 µM (inactive) |  |  |
| Cc1c(Cl)ccc2c1NC(=O)C2(O)CC(=O)c1cccc2ccccc12 (configuration not stated) | > 100 µM (inactive) | 26.2 µM (inactive) | 73.6 µM (inactive) | 78.5 µM | > 100 µM (inactive) | 35.2 µM (inactive) | 36.7 µM (inactive) | > 100 µM (inactive) | > 100 µM (inactive) | 34 µM (inactive) | 85.5 µM (inactive) | > 100 µM (inactive) | 98.9 µM (inactive) | > 100 µM (inactive) | 96.6 µM (inactive) | 59.7 µM (inactive) | 40.3 µM (inactive) | > 100 µM (inactive) |  |  |
| CCC1(N=[N+]=[N-])C(=O)c2ccccc2N(C)C1=O (configuration not stated) | > 100 µM (inactive) | > 100 µM (inactive) | > 100 µM (inactive) | > 100 µM | > 100 µM (inactive) | > 100 µM (inactive) | > 100 µM (inactive) | > 100 µM (inactive) | > 100 µM (inactive) | > 100 µM (inactive) | > 100 µM (inactive) | > 100 µM (inactive) | > 100 µM (inactive) | > 100 µM (inactive) | > 100 µM (inactive) | > 100 µM (inactive) | > 100 µM (inactive) | > 100 µM (inactive) |  |  |
| COc1c(C)c2c(c(O)c1C/C=C(\C)CCC(=O)O)C(=O)OC2 [MYCOPHENOLIC ACID] | 0.57 µM (active) | > 21.8 µM (inactive) | 0.667 µM (active) | 0.423 µM | 17.4 µM (inactive) | 0.326 µM (active) | 0.881 µM (active) | 0.632 µM (active) | 3.94 µM (inactive) | 1.02 µM (active) | 0.396 µM (active) | 1.37 µM (inactive) | 4.51 µM (inactive) | > 100 µM (inactive) | 0.401 µM (active) | 0.488 µM (active) | 0.49 µM (active) | 7.05 µM (inactive) | 7.33 µM (inactive) | > 100 µM (inactive) |
